Assays:
TRPM8 [1] = molecular target: T1, TRPM8 (Mus musculus, UniProt Q8R4D5); experiment: whole-cell voltage clamp (V1/[…] shift with […] menthol) and Fura-2 calcium imaging ([…]) in mTRPM8-transfected HEK293T cells; assay type: cell-based
TRPM8 [2] = molecular target: T1, TRPM8; experiment: whole-cell voltage clamp of menthol-evoked currents in mTRPM8-transfected HEK293T cells; also Fura-2 calcium imaging; assay type: cell-based

T1 sequence (Q8R4D5 whole entry): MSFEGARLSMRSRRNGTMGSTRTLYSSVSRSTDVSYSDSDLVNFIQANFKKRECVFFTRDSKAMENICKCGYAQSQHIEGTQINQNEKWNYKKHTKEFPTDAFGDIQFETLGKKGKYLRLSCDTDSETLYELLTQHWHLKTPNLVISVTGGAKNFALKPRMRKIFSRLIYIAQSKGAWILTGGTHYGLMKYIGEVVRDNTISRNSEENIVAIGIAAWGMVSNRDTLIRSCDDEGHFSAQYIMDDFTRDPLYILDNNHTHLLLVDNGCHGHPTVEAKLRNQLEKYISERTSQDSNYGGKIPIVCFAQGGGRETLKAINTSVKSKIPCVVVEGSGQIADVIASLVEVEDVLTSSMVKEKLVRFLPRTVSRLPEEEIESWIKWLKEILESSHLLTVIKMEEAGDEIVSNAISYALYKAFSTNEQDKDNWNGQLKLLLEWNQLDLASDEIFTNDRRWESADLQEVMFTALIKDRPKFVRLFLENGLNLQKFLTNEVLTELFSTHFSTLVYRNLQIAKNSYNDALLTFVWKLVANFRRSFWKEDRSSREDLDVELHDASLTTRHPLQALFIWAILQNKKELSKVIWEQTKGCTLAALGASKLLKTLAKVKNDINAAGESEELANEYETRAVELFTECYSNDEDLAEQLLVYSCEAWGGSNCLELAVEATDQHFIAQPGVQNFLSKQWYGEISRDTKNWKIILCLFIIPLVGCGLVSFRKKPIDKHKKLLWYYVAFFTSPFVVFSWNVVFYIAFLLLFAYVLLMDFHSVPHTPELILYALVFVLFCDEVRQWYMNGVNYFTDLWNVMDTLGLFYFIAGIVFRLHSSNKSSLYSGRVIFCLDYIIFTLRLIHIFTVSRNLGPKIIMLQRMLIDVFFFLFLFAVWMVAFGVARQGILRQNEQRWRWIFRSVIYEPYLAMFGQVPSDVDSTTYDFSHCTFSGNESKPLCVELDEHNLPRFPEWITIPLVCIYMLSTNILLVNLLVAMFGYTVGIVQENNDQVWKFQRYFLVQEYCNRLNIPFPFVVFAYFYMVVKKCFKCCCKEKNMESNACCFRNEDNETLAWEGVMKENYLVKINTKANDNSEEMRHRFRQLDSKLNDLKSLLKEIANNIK

Compound | V1/2 shift with 1 mM menthol (TRPM8 [1]) | IC50 (TRPM8 [2])
CC1CCC(C(C)C)C(O)C1 (centres unmarked) [menthol] | 79.1±21.1 mV | –
COc1cc(CN(CCN)C(=O)OC(C)c2ccccc2)ccc1OCc1ccccc1 (centres unmarked) [PBMC, 1-phenylethyl-4-(benzyloxy)-3-methoxybenzyl(2-aminoethyl)carbamate] | – | 400 pM

— publication PMC3184174, “Pharmacological Blockade of TRPM8 Ion Channels Alters Cold and Cold Pain Responses in Mice” (PLoS ONE, 2011)
